Assay results published in patent publication US20050164979A1, “Pharmaceutical composition for ophthalmological and rhinological application” (priority 2001, published 2005).

Assays:
[1] = tear film tearing time (fluorescein, slit lamp); type: in vivo; conditions: concentration of 0.1% by weight to 0.3% by weight
Description: A further diagnostic parameter in regard to diagnosis of the “dry eye” syndrome is the tear film tearing time which makes it possible to provide information about the quality of the tear fluid. In that case for example the tear film is dyed with fluorescein and the patient is then asked to keep the eyes open as long as possible without a blink reflex. A slit lamp is then used to establish when the tear film tears open for the first time. If the period of time is less than 10 seconds, there is the suspicion of the “dry eye” syndrome.

cornea epithelium = assay: wound healing after injury to the cornea epithelium or cauterisation of the cornea; type: in vivo; conditions: less scarring
[2] = system: cornea epithelium cells of rabbits; assay: epithelium cell migration; type: cell-based; conditions: 0.1% by weight sodium hyaluronate solution
[3] = subjective feeling of patients when treating dry eyes; type: in vivo; conditions: 0.1% by weight of sodium hyaluronate in the composition
Description: Aqueous sodium hyaluronate solutions are fluids with non-Newtonian flow properties. By virtue of that physical property, aqueous sodium hyaluronate solutions are excellently well suited as slip and lubricating agents with a good cling effect and a prolonged residence time on the conjunctival and corneal epithelia, without adversely affecting visual efficiency.

[4] = eye drops containing at least 0.1% of sodium hyaluronate; Jpn. J. Ophthalmol. (1996) 40: 62-65; cited from earlier work
[5] = system: cornea-epithelial barrier; conditions: dexpanthenol-bearing eye drops; barrier disturbed by insufficient tear film; Klinische Monatsblätter für Augenheilkunde (1996) 209; 84-88; cited from earlier work

| Compound | prolonging the tear film tearing time [1] | wound healing (cornea epithelium) | epithelium cell migration [2] | subjective feeling of the patients [3] | tear film stability [4] | cornea-epithelial barrier function [5] |
| --- | --- | --- | --- | --- | --- | --- |
| hyaluronic acid | highly effective | faster and better wound healing |  |  |  |  |
| sodium hyaluronate |  | faster and better wound healing | increased epithelium cell migration | considerably improves | improvement in tear film stability |  |
| CC(C)(CO)[C@@H](O)C(=O)NCCCO [dexpanthenol, D-(+)-2,4-dihydroxy-N-(3-hydroxypropyl)-3,5-dimethylbutyramide] |  |  |  |  |  | improve the cornea-epithelial barrier function |
